Experimental data from patent US12285528B2, “Injectable formulations of anesthetics for any pathological pain” (New Jersey Institute of Technology, priority 2018, dated 2025).

What was measured:
Type in all cases: in vivo, rat
[1] = test system: sciatic nerve myelin sheath; test: Transmission electron microscopy, ultrastructure of sciatic nerve; conditions: 0.25%; day 11 after injection; ipsilateral sciatic nerve; no significant difference among groups
Procedure: The rats were anesthetized with isoflurane and perfused with 300 mL of 2.5% gluteraldehyde in 0.1M sodium cacodylate buffer (pH 7.4). After perfusion, sciatic nerves were dissected, postfixed at 4° C. for 3 hours. After dehydrated by gradient ethanol elution, samples were cleared by propylene, then infiltrated with resin and embed in moulds. Transmission electronic microscopy images were acquired by a Hitachi H-7500 transmission electron microscope (Hitachi, Ltd. Japan). To observe the ultrastructure of sciatic nerve after injection, we harvested ipsilateral sciatic nerves on day 11 after injection of PBS. PLGA, 0.25% FR, and 0.25% SRR (n=3 for each group), then processed the tissue to be examined under TEM. […] Specific features of the degeneration of myelin sheath including thinner lamellae, loose lamellae, split myelin lamellae with discontinuities, or vacuole-like inclusions in the cytoplasm of Schwann cells were not observed in any of the nerve tissue.

[2] = test system: incision-induced mechanical pain hypersensitivity; test: Incisional pain model, mechanical allodynia (paw withdrawal threshold, von Frey) after peri-sciatic nerve injection; conditions: 0.25%, 0.2 mL peri-sciatic, P<0.05
Procedure: (§1) Male and female Sprague-Dawley rats weighing 200-250 g were obtained from Charles River Laboratories (Wilmington, MA). All rats were housed in an animal facility that was kept in a standard 12-h light/dark cycle, with standard laboratory water and food pellets available ad libitum. Animal experiments were conducted with the approval of the Animal Care and Use Committee at Rutgers-New Jersey Medical School and were consistent with the ethical guidelines of the US National Institutes of Health and the International Association for the Study of Pain. All efforts were made to minimize animal suffering and to reduce the number of animals used. To minimize intra- and inter-individual variability of behavioral outcome measures, animals were trained for 1-2 days before behavioral testing was performed. The experimenters were blinded to treatment condition during behavioral testing.
(§2) The incisional surgery was carried out with minor modification as described in T. J. Brennan, et al., Characterization of a rat model of incisional pain, Pain, 64 (1996) 493-501. Rats were anesthetized with 2% isoflurane delivered via a nose cone. The plantar aspect of the left hindpaw was prepared in a sterile manner with a 10% povidone-iodine solution. A 1-cm longitudinal incision was made with a number 11 blade, through skin and fascia of the plantar aspect of the foot, starting 0.5 cm from the proximal edge of the heel and extending toward the toes. The plantaris muscle was elevated and incised longitudinally. After hemostasis with gentle pressure, the skin was sutured with 5-0 nylon thread. The wound site was covered with a mixture of polymixin B, neomycin, and bacitracin ointment. After surgery, the animals were allowed to recover in their cages.
(§3) The rats received sciatic nerve block under inhalation anesthesia with isoflurane. Nerve block injections were performed with a 20-gauge needle under isoflurane-oxygen anesthesia as described in J. G. Thalhammer, et al., Neurologic evaluation of the rat during sciatic nerve block with lidocaine, Anesthesiology, 82 (1995) 1013-1025. […]

[3] = test system: myelin basic protein (MBP) of sciatic nerve; test: Immunohistochemistry, MBP expression pattern of sciatic nerve; conditions: 0.25%, 11 days post injection
Procedure: Immunohistochemistry analysis were performed as described previously in Y. X. Tao, et al., Nerve injury-induced epigenetic silencing of opioid receptors controlled by DNMT3a in primary afferent neurons, Pain, 158 (2017) 1153-1165. The rats were anesthetized with isoflurane and perfused with 300 mL of 4% paraformaldehyde in 0.1 M phosphate-buffered saline (PBS) (pH 7.4). After perfusion, sciatic nerves were dissected, postfixed at 4° C. for 4 hours and cryoprotected in 30% sucrose overnight. The transverse and longitudinal sections were cut on a cryostat at a thickness of 20 μm. The sections were blocked for 1 hour at 25° C. in 0.01M PBS containing 5% goat serum and 0.3% Triton X-100. Sections were incubated overnight at 4° C. with mouse anti-myelin basic protein (MBP) (1:500; Biolegend, San Diego, CA). The sections were then incubated with a mixture of goat anti-mouse antibody conjugated to Cy2 (1:500; Jackson ImmunoResearch, West Grove, PA) for 2 hours at room temperature. Immunofluorescence-labeled images were generated using a Leica DMI4000 fluorescence microscope with a DFC365FX camera (Leica, Germany).
To examine whether injection of SRR injured the nerve fiber, we investigated the MBP expression pattern of sciatic nerve on 11 days post injection of PBS, PLGA, 0.25% FR, and 0.25% SRR (n=3 for each group).

locomotor function = test: Locomotor function test (placing, grasping, righting reflexes); conditions: 0.25%
Procedure: The rats were divided into different groups according to the different pain model performed (incisional pain model or SNI model), and were injected with 0.2 mL of a sustained-release ropivacaine hydrochloride PBS solution (SRR or alternatively, PLGA-ROPI) containing 0.25%, 0.125%, and 0.06% of PLGA-ROPI or PLGA-RVC·HCl, a PBS solution containing 0.25% free ropivacaine (FR or alternatively, Free-ROPI), and 2 control solutions of a neat PBS, and a neat PLGA, respectively. The % used here refers to the weight (gram %) of PLGA-ROPI or PLGA-RVC·HCl by the volume (mL) of the solution. For example, 0.25% refers to 0.25 g/100 mL. The animals were divided into 10 groups: incision+0.25% SRR, incision+0.125% SRR, incision+0.06% SRR, incision+0.25% FR, incision+PLGA, incision+PBS. SNI+0.25% SRR, SNI+0.125% SRR, SNI+0.06% SRR, SNI+PBS. Each group contained 8 rats. […] For the SNI model, mechanical and cold allodynia with 1 h intervals were used to examine rats 1 d before surgery and 7 d post-surgery, post peri-sciatic nerve injection on 7 d post-surgery, and the behavior test was resumed on d8, d10, d12, d14, d16, d19, and d22. Tests of locomotor function, including placing, grasping and righting reflexes, were performed before and after incision surgery according to the previously described protocol in Y. X. Tao, et al., Impaired neuropathic pain and preserved acute pain in rats overexpressing voltage-gated potassium channel subunit Kv1.2 in primary afferent neurons, Molecular Pain, 10 (2014) 8. (1) Placing reflex: The rat was held with hind limbs slightly lower than the forelimbs and the dorsal surfaces of the hind paws were brought into contact with the edge of a table. Whether the hind paws were placed on the table surface reflexively was recorded; (2) Grasping reflex: The rat was placed on a wire grid and whether the hind paws grasped the wire on contact was recorded; (3) Righting reflex: The rat's back was placed on a flat surface and whether it immediately assumed the normal upright position was recorded. […] In addition, the animal's general behaviors, including spontaneous activity (e.g. walking and running), were observed.

[4] = test system: postsurgical pain (hindpaw plantar incision); test: Incisional pain model, overall analgesic effect (mechanical and heat) after peri-sciatic nerve injection; conditions: 0.25%, 0.2 mL peri-sciatic
Procedure: as §1
The incisional surgery was carried out with minor modification as described in T. J. Brennan, et al., Characterization of a rat model of incisional pain, Pain, 64 (1996) 493-501. Rats were anesthetized with 2% isoflurane delivered via a nose cone. The plantar aspect of the left hindpaw was prepared in a sterile manner with a 10% povidone-iodine solution. […]

[5] = test system: sciatic nerve and surrounding tissues; test: Histology (H&E) of sciatic nerve and surrounding tissues; conditions: 0.25%, 11 days after injection
Text: The rats were anesthetized with isoflurane and sciatic nerves were harvested and fixed in 4% paraformaldehyde. Following tissue fixation and dehydration, sciatic nerves were embedded in Optimal cutting temperature compound (OCT compound) and 20-μm thin slices were cut on a cryostat, then stained using hematoxylin and eosin stain technique. Nerve structures were observed using a Nikon microscope (Nikon Eclipse 80i, Japan). Rats injected with PBS, PLGA, 0.25% FR (i.e., 0.25% Free ROPI), and 0.25% SRR (i.e., 0.25% PLGA-ROPI) were euthanized 11 days after injection (n=3 for each group), and the sciatic nerve and surrounding tissues were harvested, sectioned for histology, and stained with hematoxylin-eosin (H&E). SRR were not observed on gross dissection.

[6] = test system: incision-induced thermal pain hypersensitivity; test: Incisional pain model, heat allodynia (paw withdrawal latency) after peri-sciatic nerve injection; conditions: 0.25%, P<0.05
Procedure: as §1, §2, §3

[7] = 2 h, normal reflexes in five trials

- MBP expression pattern / myelin morphology [3]: no abnormality was observed
- Grasping reflex score (locomotor function; [7]): 4.38(0.63)
- Placing reflex score (locomotor function; [7]): 5(0)
- Righting reflex score (locomotor function; [7]): 5(0)
- Grasping reflex score (locomotor function; 12 h): 5(0)
- Placing reflex score (locomotor function; 12 h): 5(0)
- Righting reflex score (locomotor function; 12 h): 5(0)
- Grasping reflex score (locomotor function; 1 d): 5(0)
- Placing reflex score (locomotor function; 1 d): 5(0)
- Righting reflex score (locomotor function; 1 d): 5(0)
- locomotor function (locomotor function; first 2 h after surgery, statistics showed no significant difference): slightly altered
- inflammation on microscopic examination (H&E) [5]: no significant inflammation
SMILES: CCCN1CCCC[C@H]1C(=O)Nc1c(C)cccc1C [FR, ropivacaine]
- myelin sheath ultrastructure (TEM) [1]: intact and tightly laminated without any discontinuities
- increase of paw withdrawal threshold to mechanical stimulation vs incision+PBS ([2]; 2 h after surgery): 76%
- increase of paw withdrawal threshold to mechanical stimulation vs incision+PBS ([2]; 4 h after surgery): 59%
- increase of paw withdrawal threshold to mechanical stimulation vs incision+PBS ([2]; 12 h after surgery): 71%
- period of analgesic effect [4]: ≤ 24 h post injection
- increase of paw withdrawal latency to heat stimulation vs incision+PBS ([6]; 0.2 mL peri-sciatic, 2 h after surgery): 29%
- increase of paw withdrawal latency to heat stimulation vs incision+PBS ([6]; 4 h after surgery): 33%
- increase of paw withdrawal latency to heat stimulation vs incision+PBS ([6]; 12 h after surgery): 18%
